Data reported in patent publication US6534516B1, “Androgen receptor modulator compounds and methods” (Ligand Pharmaceuticals Incorporated, priority 1996, dated 2003).

Columns and labels:
[1] = target: T1, PR (Homo sapiens, UniProt P06401); assay: cell-based
T1 sequence (P06401 1-933): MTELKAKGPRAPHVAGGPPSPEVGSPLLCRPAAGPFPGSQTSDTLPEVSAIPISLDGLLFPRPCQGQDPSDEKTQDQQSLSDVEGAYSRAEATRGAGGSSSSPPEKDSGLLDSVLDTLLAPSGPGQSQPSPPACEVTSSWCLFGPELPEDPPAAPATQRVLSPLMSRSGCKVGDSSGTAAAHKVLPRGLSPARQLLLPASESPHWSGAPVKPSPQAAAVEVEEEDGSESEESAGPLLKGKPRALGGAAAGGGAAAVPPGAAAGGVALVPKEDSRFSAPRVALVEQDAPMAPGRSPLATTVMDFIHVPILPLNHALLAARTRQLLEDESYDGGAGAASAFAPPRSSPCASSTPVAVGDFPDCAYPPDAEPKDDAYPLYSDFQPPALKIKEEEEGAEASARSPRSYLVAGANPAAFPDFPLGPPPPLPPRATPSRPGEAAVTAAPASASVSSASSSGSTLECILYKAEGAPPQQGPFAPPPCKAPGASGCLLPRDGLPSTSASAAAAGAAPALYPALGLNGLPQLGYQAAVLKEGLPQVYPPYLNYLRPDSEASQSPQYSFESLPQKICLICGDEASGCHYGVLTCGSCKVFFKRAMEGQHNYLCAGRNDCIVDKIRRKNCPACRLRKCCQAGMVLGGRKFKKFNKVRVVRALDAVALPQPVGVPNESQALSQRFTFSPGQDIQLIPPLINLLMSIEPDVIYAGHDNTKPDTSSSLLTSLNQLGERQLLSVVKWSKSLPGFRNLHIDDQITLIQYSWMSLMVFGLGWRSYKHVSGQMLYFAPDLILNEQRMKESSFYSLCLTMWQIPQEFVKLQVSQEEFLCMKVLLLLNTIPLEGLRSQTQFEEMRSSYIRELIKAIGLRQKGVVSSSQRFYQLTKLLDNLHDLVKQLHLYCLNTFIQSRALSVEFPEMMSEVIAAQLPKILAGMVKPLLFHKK

[2] = target: T2, MR (Homo sapiens, UniProt P08235); assay: Co-transfection assay, cross-reactivity on MR; format: cell-based
T2 construct: expressed in transfected cells
T2 sequence (P08235 1-984): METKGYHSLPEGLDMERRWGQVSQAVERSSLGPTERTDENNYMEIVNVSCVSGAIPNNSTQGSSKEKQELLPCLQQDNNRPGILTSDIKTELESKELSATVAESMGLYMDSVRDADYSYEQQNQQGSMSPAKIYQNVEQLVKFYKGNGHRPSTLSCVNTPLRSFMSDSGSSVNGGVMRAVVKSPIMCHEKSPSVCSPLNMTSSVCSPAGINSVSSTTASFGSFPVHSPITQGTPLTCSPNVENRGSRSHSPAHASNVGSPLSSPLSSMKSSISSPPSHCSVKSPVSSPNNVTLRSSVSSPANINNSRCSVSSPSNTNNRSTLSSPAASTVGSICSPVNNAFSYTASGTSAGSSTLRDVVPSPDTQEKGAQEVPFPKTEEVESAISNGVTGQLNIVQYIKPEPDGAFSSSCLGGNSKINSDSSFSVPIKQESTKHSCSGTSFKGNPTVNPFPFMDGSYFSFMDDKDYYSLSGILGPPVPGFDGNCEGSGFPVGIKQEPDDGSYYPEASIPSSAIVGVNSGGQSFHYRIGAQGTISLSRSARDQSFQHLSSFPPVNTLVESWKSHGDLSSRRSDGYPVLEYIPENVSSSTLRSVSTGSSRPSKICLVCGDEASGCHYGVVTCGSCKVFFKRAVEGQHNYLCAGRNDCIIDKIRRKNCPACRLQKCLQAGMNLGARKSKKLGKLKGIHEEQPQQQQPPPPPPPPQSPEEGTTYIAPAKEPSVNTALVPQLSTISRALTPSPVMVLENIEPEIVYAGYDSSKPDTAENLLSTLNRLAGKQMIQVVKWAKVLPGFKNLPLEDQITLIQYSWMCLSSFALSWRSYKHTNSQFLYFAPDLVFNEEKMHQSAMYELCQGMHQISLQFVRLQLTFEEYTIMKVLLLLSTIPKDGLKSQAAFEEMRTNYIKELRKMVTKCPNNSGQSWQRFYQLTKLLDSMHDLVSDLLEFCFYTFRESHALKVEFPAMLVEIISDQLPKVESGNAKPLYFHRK

## Cn1c(=O)cc(C(F)(F)F)c2cc3c(cc21)N1CCCC1(C)CC3 (racemic) [Compound 103, (R/S)-6,7,7a,11-Tetrahydro-1,7a-dimethyl-4-trifluoromethyl-2-pyridono[5,6-g]pyrrolidino[1,2-a]quinoline]
[1]
  IC50: 5.94 µM
[2]
  IC50: 1.59 µM
